PMC9481563, “Structural insights into the pSer/pThr dependent regulation of the SHP2 tyrosine phosphatase in insulin and CD28 signaling” (Nature Communications, 2022)
“Also recorded” adds a separate entry of the source.

How the values were obtained:
SHP2 = SHP2 substrate sites, cutoff > 0.5 for genuine substrates; ref [1] Barr AJ et al., Cell 136, 352-63 (2009); cited from earlier work
From the text: page 80: Supplementary tables Peptide name Sequence Activity (Arb. u.) CADH2-Y785 […] 0.7 ERBB2-Y1248 […]- 0.6 PGFRB-Y751 […] 1 LCK-Y394 […] 1.3 CSK-Y184 […] 1.5 GHR-Y487 […] 0.8 TIE2-Y816 […] 1.2 ERBB2-Y1139 […] 1.2 WASP-Y290 […] 0.6 PAXI-Y118 […] 0.8 Supplementary table 1. SHP2 substrate sites derived from a large-scale comparative study with quantitative results. A cutoff of > 0.5 was applied to separate genuine SHP2 substrates from spurious signals. ...

[1] = test system: tyrosine kinase domain of the human insulin receptor (InsR); experiment: Capillary electrophoresis phosphorylation assay, InsR kinase domain; assay type: biochemical; conditions: CE assay, effect of pSer vs non-phosphorylated peptide of the pair; 1 mM ATP, pH 7.5; n = 1
Method: Ni-NTA purified stocks were subjected to anion exchange chromatography using an Äkta explorer instrument (Amersham Pharmacia) and Resource Q columns (GE healthcare). Prior to anion exchange, all proteins were dialyzed overnight against a low salt buffer (10–50 mM NaCl, 20 mM TRIS [pH = 8.0], 10% glycerol and 1 mM 1,4-dithiothreitol [DTT]) using a Servapor MWCO 12,000–14,000 membrane. Proteins loaded onto the column were eluted using a salt gradient up to 1 M NaCl over 30 min. Purity of proteins was assessed by SDS-PAGE and final samples were typically found to have >95% purity (see Supplementary figs. 85, 86). The protein aliquots were snap-frozen in liquid nitrogen and stored in −80 °C. […]
Phosphorylation and dephosphorylation assays with peptides were performed using capillary electrophoresis on an Agilent Capillary Electrophoresis ^3DCE system (Agilent Technologies, Waldbronn, Germany) applying DB-WAX coated silica capillary having a 33.5 cm total and 25 cm effective length with 50 μm I.D. (Agilent Technologies, Santa Clara, CA, USA). On-line absorption at 200 nm was monitored by DAD UV-Vis detector. […] Kinetic curves in the article are always presented with exponential fits (that approximate the integrated Michaelis-Menten functions decently on the measured time intervals).

[2] = test system: wild-type SHP2 catalytic domain; experiment: Capillary electrophoresis dephosphorylation assay, SHP2 catalytic domain; assay type: biochemical, human; conditions: for % nominal product: WT-SHP2 catalytic domain
Method: Phosphorylation and dephosphorylation assays with peptides were performed using capillary electrophoresis on an Agilent Capillary Electrophoresis ^3DCE system (Agilent Technologies, Waldbronn, Germany) applying DB-WAX coated silica capillary having a 33.5 cm total and 25 cm effective length with 50 μm I.D. (Agilent Technologies, Santa Clara, CA, USA). On-line absorption at 200 nm was monitored by DAD UV-Vis detector. The capillary was thermostated at 25 °C. Before measurements the capillary was rinsed subsequently with distilled water for 15 min and between measurements with BGE (100 mM trimethylamine-phosphate buffer (pH 2.5)) for 3 min. Samples were injected by 5 × 103 Pa pressure for 6 s. Runs were performed in the positive-polarity mode with 20 kV. […] The reaction was initialized by addition of the phosphatase enzyme. Kinase reactions were realized with the following buffer: 20 mM potassium phosphate (monobasic), 15 mM sodium phosphate (dibasic), 100 mM NaCl, 5 mM MgCl2, 5% glycerol, 0,05% non-ionic detergent IGEPAL, pH 7.5; reaction was started with the addition of 1 mM of ATP. Sampling from reactions was done in real time, except when conditions required pre-concentration of samples (with PTP1B only). In the latter case, reactions were run in 15 ml Falcon tubes, using an NH4HCO3-based buffer (100 mM end concentration), with 5 nM enzyme. After heat inactivation (10 min at 75 °C), the latter samples were lyophilized until dry and reconstituted in 40 ul distilled H2O. Kinetic curves in the article are always presented with exponential fits (that approximate the integrated Michaelis-Menten functions decently on the measured time intervals).

[3] = test system: HEK293T cells co-transfected with IRS1-FLAG (wild-type or Ser/Ala mutant) and constitutive active SHP2; experiment: Cell-based IRS1 Y612 phosphorylation assay (western blot) after insulin; set-up: species or system human
Method: HEK293T cells (#CRL-3216 ATCC, Manassas, VA USA) were maintained in DMEM (#41966029 Gibco, Waltham MA USA) supplemented with 10% FBS (#10500064 Gibco), 1% penicillin-streptomycin (#P0781-100ML Sigma, St. Louis MI USA) and 0.1% Amphotericin B (#15290026 Gibco). Cells were plated into 24-well plates in 7.5 × 10^4/well concentration and co-transfected with wild-type or Ser/Ala mutant pcDNA3.1-IRS1-FLAG and constitutive active pcDNA3.1-SHP2 plasmids using Lipofectamine 3000 (#L3000008 Invitrogen) reagent following the manufacturer’s instruction. After overnight serum-starvation cells were treated with 1 µM insulin (I9278, Sigma) for 0–30 min and harvested in Western sample buffer. Samples were run in 4–20% gradient gel (#4561096 BioRad, Hercules, CA USA) and transferred to nitrocellulose membrane using Transblot-Turbo System (#1704271 BioRad). Membranes were incubated in 1:5000 M2 anti-FLAG (#1804-200UG Sigma) and 1:1000 anti-pY612-IRS1 (#44-816 G Invitrogen) overnight and labelled with 1:10000 IRDye anti- mouse 680 (#92668070 LICOR Biosciences, Lincoln, NE USA) and 1:10.000 IRDye anti- rabbit 800 […] (#92632211 LICOR Biosciences) secondary antibodies. Membranes were scanned using the Odyssey CLx Fluorescence Imaging System (LICOR Biosciences, v5.2.5.).

[4] = 19 min, average of 3 replicates
[5] = 35 min, average of 3 replicates

Substance: ARLIEDNEYTAREGAKF [LCK-Y394, SHP2 substrate site peptide from a large-scale comparative study]
- Activity (Arb. u.) (SHP2): 1.3 Arb. u.

Substance: DAETSKLIYDFIEDQGG [WASP-Y290, SHP2 substrate site peptide from a large-scale comparative study]
- Activity (Arb. u.) (SHP2): 0.6 Arb. u.

Substance: GGGEEDQDYDLSQLQQP [CADH2-Y785, SHP2 substrate site peptide from a large-scale comparative study]
- Activity (Arb. u.) (SHP2): 0.7 Arb. u.

Substance: GRKGSGDYMPM{pSer}PKS [0pIRS1, IRS1 Y632 peptide with pSer only, InsR kinase substrate]
- tyrosine phosphorylation by InsR kinase (in words) [1]: failed to indicate any major effect; also recorded: altered kinetics to a very limited degree

Substance: HPPEPKSPGE{pTyr}VNIEFGS [p0Rev-IRS1, IRS1 Y896 peptide, phosphotyrosine-only, used for dephosphorylation assays]
- % nominal product [2, 4]: 2.9%
- % nominal product ([2]; 19 min, replicate 01): 4.9%
- % nominal product ([2]; 19 min, replicate 02): 4.1%
- % nominal product ([2]; 19 min, replicate 03): -0.2%
- % nominal product [2, 5]: 2.1%
- % nominal product ([2]; 35 min, replicate 01): 2.3%
- % nominal product ([2]; 35 min, replicate 02): 1.9%
- % nominal product ([2]; 35 min, replicate 03): 2.2%
- % nominal product ([2]; 51 min, replicate 01): 8.3%
- % nominal product ([2]; 51 min, replicate 02): 2.0%
- % nominal product ([2]; 51 min, replicate 03): 1.3%

Substance: HPPEPK{pSer}PGEYVNIEFGS [0pRev-IRS1, IRS1 Y896 motif peptide with −4 pSer only]
- tyrosine phosphorylation by InsR kinase (in words) [1]: altered kinetics to a very limited degree; also recorded: no major differences

Substance: HPPEPK{pSer}PGE{pTyr}VNIEFGS [ppRev-IRS1, IRS1 Y896 peptide with pSer in addition to pTyr, for dephosphorylation assays]
- tyrosine dephosphorylation rate (in words) ([2]; CE assay, substrate 50 μM, enzyme 25 nM, 50 mM TRIS, 150 mM NaCl, 1 mM EDTA, 2 mM DTT, IGEPAL 0.1%, pH 7.4): superior reaction rates; also recorded: greatly enhanced
- % nominal product [2, 4]: 47.8%
- % nominal product ([2]; 19 min, replicate 01): 47.7%
- % nominal product ([2]; 19 min, replicate 02): 59.3%
- % nominal product ([2]; 19 min, replicate 03): 36.5%
- % nominal product [2, 5]: 52.8%
- % nominal product ([2]; 35 min, replicate 01): 58.7%
- % nominal product ([2]; 35 min, replicate 02): 60.4%
- % nominal product ([2]; 35 min, replicate 03): 39.2%
- % nominal product ([2]; 51 min, average of 3 replicates): 55.2%
- % nominal product ([2]; 51 min, replicate 01): 60.3%
- % nominal product ([2]; 51 min, replicate 02): 61.2%
- % nominal product ([2]; 51 min, replicate 03): 44.1%

Substance: KNNPDPTIYPVLDWNDI [TIE2-Y816, SHP2 substrate site peptide from a large-scale comparative study]
- Activity (Arb. u.) (SHP2): 1.2 Arb. u.

Substance: LTCSPQPEYVNQPDVRP [ERBB2-Y1139, SHP2 substrate site peptide from a large-scale comparative study]
- Activity (Arb. u.) (SHP2): 1.2 Arb. u.

Substance: MSKDESVDYVPMLDMKG [PGFRB-Y751, SHP2 substrate site peptide from a large-scale comparative study]
- Activity (Arb. u.) (SHP2): 1 Arb. u.

Substance: RVGEEEHVYSFPNKQKS [PAXI-Y118, SHP2 substrate site peptide from a large-scale comparative study]
- Activity (Arb. u.) (SHP2): 0.8 Arb. u.

Substance: SSLSNIDFYAQVSDITP [GHR-Y487, SHP2 substrate site peptide from a large-scale comparative study]
- Activity (Arb. u.) (SHP2): 0.8 Arb. u.

Substance: TPTAENPEYLGLDVPV- [ERBB2-Y1248, SHP2 substrate site peptide from a large-scale comparative study]
- Activity (Arb. u.) (SHP2): 0.6 Arb. u.

Substance: TVAAQDEFYRSGWALNM [CSK-Y184, SHP2 substrate site peptide from a large-scale comparative study]
- Activity (Arb. u.) (SHP2): 1.5 Arb. u.

Substance: wt
- pY612-IRS1/FLAG ratio, Median value ([3]; Supp Fig 13, baseline analysis, median of 12): 0.0394
- pY612-IRS1/FLAG ratio, Median value ([3]; Supp Fig 13, time course analysis, 0 min, median of 10): 0.0379
- pY612-IRS1/FLAG ratio, Median value ([3]; Supp Fig 13, time course analysis, 15 min, median of 10): 0.4550
- pY612-IRS1/FLAG ratio, Median value ([3]; Supp Fig 14, baseline analysis, median of 3): 0.0140
